Source: patent US10479795B2 (Incyte Corporation, priority 2016, dated 2019)
Where a name gives a salt, the structure may show the parent alone. Read-outs that look alike come from different tables or passages of the source.

Columns and labels:
[1] = biological target: PI3Kγ (p110γ) Recombinant Human Protein (Homo sapiens (Human), UniProt P48736); assay: PI3K-γ Scintillation Proximity Assay; assay type: biochemical; conditions: read-out: PI3Kγ IC50
Method in brief: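 Recombinant human p110γ assayed at room temperature in 20 mM MOPS pH 6.7, 10 mM MgCl2, 5 mM DTT, 0.03% CHAPS, 2% DMSO, with 20 μM PIP2 and 2 μM ATP plus [γ-33P]ATP. Product captured on WGA SPA beads overnight and counted; IC50 fitted from % of solvent-control activity versus log inhibitor concentration.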

[2] = tested on: Phosphorylated Ribosomal Protein S6 (RPS6); assay: THP-1 RPS6 ELISA Assay; assay type: cell-based, Human; conditions: THP-1 cells, read-out: PI3Kγ_THP1_RPS6_ELISA IC50
Method in brief: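 Serum-starved THP-1 cells were preincubated with a concentration range of compound for 2 h at 37 °C, then stimulated with 10 nM MCP-1 for 15 min. Phospho-RPS6 in lysates was quantified by ELISA at 450 nm. IC50 came from percent inhibition versus log inhibitor concentration.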

[3] = biological target: PI3Kδ (p110δ/p85α) Recombinant Human Protein (Homo sapiens (Human), UniProt O00329); assay: PI3Kδ Scintillation Proximity Assay; assay type: biochemical
Chain of PI3Kδ (p110δ/p85α) Recombinant Human Protein (O00329 whole entry): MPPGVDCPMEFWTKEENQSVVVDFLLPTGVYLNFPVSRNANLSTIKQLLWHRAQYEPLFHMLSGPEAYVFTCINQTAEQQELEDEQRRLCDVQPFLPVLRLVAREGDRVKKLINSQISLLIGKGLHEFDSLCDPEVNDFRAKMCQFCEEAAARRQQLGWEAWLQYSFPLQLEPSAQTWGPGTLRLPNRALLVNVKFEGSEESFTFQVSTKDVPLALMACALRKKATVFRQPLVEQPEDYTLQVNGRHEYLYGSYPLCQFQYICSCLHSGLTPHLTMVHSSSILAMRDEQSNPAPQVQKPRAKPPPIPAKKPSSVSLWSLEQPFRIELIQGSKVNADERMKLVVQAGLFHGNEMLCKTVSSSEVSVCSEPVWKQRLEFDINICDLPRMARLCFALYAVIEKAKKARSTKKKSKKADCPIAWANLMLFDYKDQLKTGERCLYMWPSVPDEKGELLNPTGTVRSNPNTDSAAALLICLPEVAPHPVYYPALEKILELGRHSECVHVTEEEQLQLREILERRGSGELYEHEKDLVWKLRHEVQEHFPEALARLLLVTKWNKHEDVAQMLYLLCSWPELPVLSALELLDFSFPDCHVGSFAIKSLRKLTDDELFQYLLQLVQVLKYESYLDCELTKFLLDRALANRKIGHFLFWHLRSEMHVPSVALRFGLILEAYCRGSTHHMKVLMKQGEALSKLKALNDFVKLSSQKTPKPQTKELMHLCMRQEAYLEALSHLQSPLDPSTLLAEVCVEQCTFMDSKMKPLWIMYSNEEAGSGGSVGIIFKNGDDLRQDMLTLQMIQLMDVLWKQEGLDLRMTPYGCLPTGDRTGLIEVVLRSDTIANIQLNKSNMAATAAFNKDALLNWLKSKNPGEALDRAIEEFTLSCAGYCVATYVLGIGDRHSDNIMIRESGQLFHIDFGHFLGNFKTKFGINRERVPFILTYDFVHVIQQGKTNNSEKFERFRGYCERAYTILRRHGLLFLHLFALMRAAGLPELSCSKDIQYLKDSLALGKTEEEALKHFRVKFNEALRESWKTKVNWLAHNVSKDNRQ
Chain of PI3Kδ (p110δ/p85α) Recombinant Human Protein (P27986 whole entry partner): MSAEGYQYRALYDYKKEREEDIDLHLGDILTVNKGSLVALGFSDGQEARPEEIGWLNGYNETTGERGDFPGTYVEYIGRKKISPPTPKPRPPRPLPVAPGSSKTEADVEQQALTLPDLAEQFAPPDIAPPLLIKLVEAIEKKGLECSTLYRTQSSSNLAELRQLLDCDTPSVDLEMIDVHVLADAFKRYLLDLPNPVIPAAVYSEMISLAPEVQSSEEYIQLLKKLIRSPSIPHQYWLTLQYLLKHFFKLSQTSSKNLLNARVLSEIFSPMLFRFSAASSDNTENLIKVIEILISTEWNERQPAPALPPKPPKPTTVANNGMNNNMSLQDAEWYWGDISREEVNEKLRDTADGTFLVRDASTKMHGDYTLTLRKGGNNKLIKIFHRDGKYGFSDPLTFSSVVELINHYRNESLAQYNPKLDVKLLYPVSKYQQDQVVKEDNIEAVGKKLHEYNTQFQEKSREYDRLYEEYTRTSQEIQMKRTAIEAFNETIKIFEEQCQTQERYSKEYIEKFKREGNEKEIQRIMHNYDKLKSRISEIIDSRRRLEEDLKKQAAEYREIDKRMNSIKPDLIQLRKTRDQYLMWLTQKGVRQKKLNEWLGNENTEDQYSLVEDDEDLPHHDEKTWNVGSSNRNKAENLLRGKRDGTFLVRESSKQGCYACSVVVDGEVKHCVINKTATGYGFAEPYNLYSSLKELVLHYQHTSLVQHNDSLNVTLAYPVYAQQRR
Method in brief: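 Kinase reaction run at room temperature in 20 mM MOPS pH 6.7, 10 mM MgCl2, 5 mM DTT, 0.03% CHAPS with 20 μM PIP2, 2 μM ATP plus [γ-33P]ATP, 3.4 nM enzyme, 2% DMSO; 120 min. Quenched with WGA SPA beads/EDTA, counted by scintillation; IC50 from % solvent-control activity vs log concentration.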

Chain of PI3Kγ (p110γ) Recombinant Human Protein (P48736 whole entry): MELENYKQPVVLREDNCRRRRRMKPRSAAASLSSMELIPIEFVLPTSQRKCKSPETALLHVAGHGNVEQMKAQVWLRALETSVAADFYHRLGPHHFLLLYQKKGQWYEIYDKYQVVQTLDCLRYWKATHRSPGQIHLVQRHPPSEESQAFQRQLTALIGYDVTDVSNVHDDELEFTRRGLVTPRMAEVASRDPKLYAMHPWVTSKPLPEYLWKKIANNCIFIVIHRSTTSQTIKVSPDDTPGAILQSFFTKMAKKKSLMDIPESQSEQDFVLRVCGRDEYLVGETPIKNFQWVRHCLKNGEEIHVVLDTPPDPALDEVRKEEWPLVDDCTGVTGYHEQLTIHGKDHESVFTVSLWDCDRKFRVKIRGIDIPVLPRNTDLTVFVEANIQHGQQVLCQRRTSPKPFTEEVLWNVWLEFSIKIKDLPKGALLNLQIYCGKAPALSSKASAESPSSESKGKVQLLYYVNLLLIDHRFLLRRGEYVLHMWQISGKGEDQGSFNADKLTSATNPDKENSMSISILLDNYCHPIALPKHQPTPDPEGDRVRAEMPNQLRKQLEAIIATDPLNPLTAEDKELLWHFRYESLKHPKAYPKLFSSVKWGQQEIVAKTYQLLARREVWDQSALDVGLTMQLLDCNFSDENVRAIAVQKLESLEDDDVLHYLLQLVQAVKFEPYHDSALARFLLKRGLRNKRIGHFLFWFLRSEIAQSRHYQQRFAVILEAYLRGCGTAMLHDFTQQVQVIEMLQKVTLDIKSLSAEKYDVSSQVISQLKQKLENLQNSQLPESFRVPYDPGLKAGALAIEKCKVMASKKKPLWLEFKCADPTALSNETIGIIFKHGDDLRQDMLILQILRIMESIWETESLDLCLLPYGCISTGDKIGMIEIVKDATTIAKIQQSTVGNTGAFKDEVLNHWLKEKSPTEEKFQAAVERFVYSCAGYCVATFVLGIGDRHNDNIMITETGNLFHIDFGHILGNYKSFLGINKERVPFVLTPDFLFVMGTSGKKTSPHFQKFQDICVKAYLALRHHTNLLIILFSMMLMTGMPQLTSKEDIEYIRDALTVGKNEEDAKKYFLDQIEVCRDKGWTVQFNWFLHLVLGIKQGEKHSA

Row | Structure (SMILES) | IC50 [1] [nM] | IC50 ([2]; Homo sapiens) [nM] | IC50 [3] [nM] | IC50 [2] [nM]
1 | Cc1ccc(-c2cn3c(-c4cc(S(=O)(=O)N[C@H]5CC[C@H](O)CC5)ccc4C)cnc3c(N)n2)cc1 [Example 18, 3-[8-Amino-6-(4-methylphenyl)imidazo[1,2-a]pyrazin-3-yl]-N-(trans-4-hydroxycyclohexyl)-4-methylbenzenesulfonamide] | < 100 | < 100 | 100 to 500 | 
2 | Cc1ccc(S(=O)(=O)NCC2CCC(F)(F)CC2)cc1-c1cnc2c(N)ncnn12 [Example 130, 3-(4-aminoimidazo[2,1-f][1,2,4]triazin-7-yl)-N-((4,4-difluorocyclohexyl)methyl)-4-methylbenzenesulfonamide] | < 100 | 500 to 1000 | 500 to 2000 | 
3 | Cc1ccc(S(=O)(=O)NC23CCC(C(O)c4ccccc4)(CC2)OC3)cc1-c1cnc2c(N)ncnn12 (racemic) [Example 438, 3-(4-Aminoimidazo[1,2-f][1,2,4]triazin-7-yl)-N-(1-(hydroxy(phenyl)methyl)-2-oxabicyclo[2.2.2]octan-4-yl)-4-methylbenzenesulfonamide trifluoroacetate salt (racemic)] | < 100 | < 100 | 100 to 500 | 
4 | Cc1ccc(S(=O)(=O)NC2CC2)cc1-c1cnc2c(N)nccn12 [Example 47, 3-(8-Aminoimidazo[1,2-a]pyrazin-3-yl)-N-cyclopropyl-4-methylbenzenesulfoanmide] | < 100 |  | 500 to 2000 | > 1000
5 | COc1cc(C)c(-c2cnc3c(N)nccn23)cc1S(=O)(=O)N[C@H]1CC[C@H](O)CC1 [Example 83, 5-(8-aminoimidazo[1,2-a]pyrazin-3-yl)-N-(trans-4-hydroxycyclohexyl)-2-methoxy-4-methylbenzenesulfonamide] | 100 to 500 | > 1000 | < 100 | 
6 | Cc1ncc(-c2cn3c(-c4cc(S(=O)(=O)N[C@H]5CC[C@H](O)CC5)ccc4C)cnc3c(N)n2)s1 [Example 35, 3-[8-Amino-6-(2-methylthiazol-5-yl)imidazo[1,2-a]pyrazin-3-yl]-N-(trans-4-hydroxycyclohexyl)-4-methylbenzenesulfonamide] | < 100 | < 100 | 100 to 500 | 
7 | Cc1ccc(S(=O)(=O)NCC2(C)COC2)cc1-c1cnc2c(N)nc(C(F)(F)F)nn12 [Example 318, 3-(4-Amino-2-(trifluoromethyl)imidazo[1,2-f][1,2,4]triazin-7-yl)-4-methyl-N-((3-methyloxetan-3-yl)methyl)benzenesulfonamide trifluoroacetate salt] | < 100 |  | 100 to 500 | < 100
8 | Cc1ncc(S(=O)(=O)NC23CCC(C#N)(C2)C3)cc1-c1cnc2c(N)ncnn12 [Example 256, 5-(4-Aminoimidazo[2,1-f][1,2,4]triazin-7-yl)-N-(4-cyanobicyclo[2.1.1]hexan-1-yl)-6-methylpyridine-3-sulfonamide trifluoroacetate salt] | < 100 | 100 to 500 | 100 to 500 | 
9 | Cc1ccc(S(=O)(=O)NC23CC(C#N)(C2)C3)cc1-c1cnc2c(N)ncnn12 [Example 250, 3-(4-Aminoimidazo[2,1-f][1,2,4]triazin-7-yl)-N-(3-cyanobicyclo[1.1.1]pentan-1-yl)-4-methylbenzenesulfonamide] | < 100 | 100 to 500 | 100 to 500 | 
10 | N#CC12CCC(NS(=O)(=O)c3cc(-c4cnc5c(N)nc(C(F)(F)F)nn45)ccc3Cl)(C1)C2 [Example 414, 5-(4-Amino-2-(trifluoromethyl)imidazo[1,2-f][1,2,4]triazin-7-yl)-2-chloro-N-(4-cyanobicyclo[2.1.1]hexan-1-yl)benzenesulfonamide] | < 100 |  | < 100 | 100 to 500

The remaining lines, values ahead:

Row | IC50 [1] [nM] | IC50 ([2]; Homo sapiens) [nM] | IC50 [3] [nM] | IC50 [2] [nM] | Structure (SMILES)
11 | < 100 | 100 to 500 | 100 to 500 |  | Cc1ccc(S(=O)(=O)N2CCCC(CO)C2)cc1-c1cnc2c(N)nc(C(F)(F)F)cn12 (stereo not drawn) [Example 472, (1-((3-(8-Amino-6-(trifluoromethyl)imidazo[1,2-a]pyrazin-3-yl)-4-methylphenyl)sulfonyl)piperidin-3-yl)methanol]
12 | < 100 | < 100 | 100 to 500 |  | Cc1cccc(-c2cn3c(-c4cc(S(=O)(=O)N[C@H]5CC[C@H](O)CC5)ccc4C)cnc3c(N)n2)c1 [Example 19, 3-[8-Amino-6-(3-methylphenyl)imidazo[1,2-a]pyrazin-3-yl]-N-(trans-4-hydroxycyclohexyl)-4-methylbenzenesulfonamide]
13 | < 100 | 100 to 500 | 100 to 500 |  | Cc1ccc(S(=O)(=O)N2CC3CCOCC3C2)cc1-c1cnc2c(N)ncnn12 (stereo not drawn) [Example 210, 7-(5-((Hexahydropyrano[3,4-c]pyrrol-2(3H)-yl)sulfonyl)-2-methylphenyl)imidazo[2,1-f][1,2,4]triazin-4-amine]
14 | < 100 |  | 100 to 500 | 100 to 500 | CC(=O)C12CC(NS(=O)(=O)c3ccc(C)c(-c4cnc5c(N)ncnn45)c3)(C1)C2 [Example 95, N-(3-Acetylbicyclo[1.1.1]pentan-1-yl)-3-(4-aminoimidazo[1,2-f][1,2,4]triazin-7-yl)-4-methylbenzenesulfonamide trifluoroacetate salt]
15 | 100 to 500 | > 1000 | 500 to 2000 |  | Cc1ccc(S(=O)(=O)N2CC(F)C2)cc1-c1cnc2c(N)ncnn12 [Example 131, 7-(5-((3-fluoroazetidin-1-yl)sulfonyl)-2-methylphenyl)imidazo[2,1-f][1,2,4]triazin-4-amine]
16 | < 100 |  | 100 to 500 | 100 to 500 | Cc1ccc(S(=O)(=O)N[C@H]2CC[C@@H](C#N)C2)cc1-c1cnc2c(N)nc(C(F)(F)F)nn12 (single isomer, unassigned) [Example 320]
17 | < 100 | 100 to 500 | 100 to 500 |  | Cc1ccc(S(=O)(=O)NC23CCC(C(F)F)(CC2)OC3)cc1-c1cnc2c(N)ncnn12 [Example 436, 3-(4-aminoimidazo[1,2-f][1,2,4]triazin-7-yl)-N-(1-(difluoromethyl)-2-oxabicyclo[2.2.2]octan-4-yl)-4-methylbenzenesulfonamide trifluoroacetate salt]
18 | < 100 | 100 to 500 | 100 to 500 |  | Cc1ccc(S(=O)(=O)NC23CCC(O)(CC2)CC3)cc1-c1cnc2c(N)ncnn12 [Example 185, 3-(4-aminoimidazo[2,1-f][1,2,4]triazin-7-yl)-N-(4-hydroxybicyclo[2.2.2]octan-1-yl)-4-methylbenzenesulfonamide]
19 | < 100 | < 100 | 100 to 500 |  | Cc1ccc(S(=O)(=O)NC23CCC(CO)(C2)C3)cc1-c1cnc2c(N)nc(C3CC3)nn12 [Example 259, 3-(4-Amino-2-cyclopropylimidazo[2,1-f][1,2,4]triazin-7-yl)-N-(4-(hydroxymethyl)bicyclo[2.1.1]hexan-1-yl)-4-methylbenzenesulfonamide trifluoroacetate salt]
20 | < 100 | 100 to 500 | 100 to 500 |  | Cc1ccc(S(=O)(=O)N2CC3NCC2C3O)cc1-c1cnc2c(N)nc(C(F)(F)F)nn12 (stereo not drawn) [Example 355, 2-((3-(4-amino-2-(trifluoromethyl)imidazo[2,1-f][1,2,4]triazin-7-yl)-4-methylphenyl)sulfonyl)-2,5-diazabicyclo[2.2.1]heptan-7-ol]
21 | < 100 | < 100 | 100 to 500 |  | O=C(O)C(F)(F)F.[2H]C([2H])([2H])c1ccc(S(=O)(=O)NC23CC(CO)(C2)C3)cc1-c1cnc2c(N)nc(C(F)(F)F)cn12 [Example 391, 3-(8-Amino-6-(trifluoromethyl)imidazo[1,2-a]pyrazin-3-yl)-N-(3-(hydroxymethyl)bicyclo[1.1.1]pentan-1-yl)-4-(methyl-d3)benzenesulfonamide trifluoroacetate salt]
22 | < 100 |  | 100 to 500 | < 100 | Cc1ccc(S(=O)(=O)N[C@H]2C[C@H](CO)C2)cc1-c1cnc2c(N)nc(C(F)(F)F)nn12 [Example 323, 3-(4-Amino-2-(trifluoromethyl)imidazo[1,2-f][1,2,4]triazin-7-yl)-N-((1r,3r)-3-(hydroxymethyl)cyclobutyl)-4-methylbenzenesulfonamide trifluoroacetate salt]
23 | < 100 | 100 to 500 | 100 to 500 |  | Cc1ccc(S(=O)(=O)N[C@H]2CC[C@](C)(O)CC2)cc1-c1cnc2c(N)ncnn12 [Example 463, 3-(4-Aminoimidazo[2,1-f][1,2,4]triazin-7-yl)-N-((1r,4r)-4-hydroxy-4-methylcyclohexyl)-4-methylbenzenesulfonamide]
24 | < 100 |  | 100 to 500 | 100 to 500 | Cc1ccc(S(=O)(=O)NC23CC(C(C)(C)O)(C2)C3)cc1-c1cnc2c(N)ncnn12 [Example 93, 3-(4-Aminoimidazo[1,2-f][1,2,4]triazin-7-yl)-N-(3-(2-hydroxypropan-2-yl)bicyclo[1.1.1]pentan-1-yl)-4-methylbenzenesulfonamide trifluoroacetate slt]
